In paper PMC6934184, “Selective DNA-PKcs inhibition extends the therapeutic index of localized radiotherapy and chemotherapy” (The Journal of Clinical Investigation, 2019) one finds inhibition data, which are given here for one molecule.

In the assay the target is T1, MARK4 (Homo sapiens, UniProt Q96L34).
T1 construct: purchased Thermo Fisher Scientific (Life Technologies) SelectScreen
Briefly: SelectScreen Z'LYTE. In kind it is biochemical. The procedure, abridged:
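NU5455 was profiled across the SelectScreen Broad panel of kinase activity and binding assays. Z'LYTE reactions such as CSF1R ran at apparent Km ATP, while the Adapta CAMK1 assay used ATP listed as 10. Values are given as percent.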

As usually defined, the inhibition is the change of the read-out against control, counted positive when it falls.

Molecules are shown by their SMILES.

T1 sequence (Q96L34 whole entry): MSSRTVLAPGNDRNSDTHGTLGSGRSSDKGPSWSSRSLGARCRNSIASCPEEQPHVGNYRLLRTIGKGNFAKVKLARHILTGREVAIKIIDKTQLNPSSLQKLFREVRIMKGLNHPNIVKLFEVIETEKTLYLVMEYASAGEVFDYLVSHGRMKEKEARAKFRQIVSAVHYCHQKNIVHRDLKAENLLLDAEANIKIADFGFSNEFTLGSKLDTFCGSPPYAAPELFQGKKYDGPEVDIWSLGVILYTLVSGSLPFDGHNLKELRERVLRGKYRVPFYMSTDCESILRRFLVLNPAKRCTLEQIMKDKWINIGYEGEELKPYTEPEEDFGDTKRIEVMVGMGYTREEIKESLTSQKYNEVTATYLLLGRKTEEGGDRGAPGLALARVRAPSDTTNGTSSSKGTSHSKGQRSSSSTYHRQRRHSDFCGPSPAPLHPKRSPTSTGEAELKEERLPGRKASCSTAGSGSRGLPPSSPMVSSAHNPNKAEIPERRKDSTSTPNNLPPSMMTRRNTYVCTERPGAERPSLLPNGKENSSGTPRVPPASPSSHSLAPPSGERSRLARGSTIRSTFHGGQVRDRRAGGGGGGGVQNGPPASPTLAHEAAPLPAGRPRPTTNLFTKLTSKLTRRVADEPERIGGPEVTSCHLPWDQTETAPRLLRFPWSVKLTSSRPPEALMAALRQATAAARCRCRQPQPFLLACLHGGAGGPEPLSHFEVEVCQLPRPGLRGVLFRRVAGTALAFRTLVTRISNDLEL

For the molecule `CN(C(=O)CN1CCOCC1)c1ccc2sc3c(-c4cccc5c(=O)cc(N6CC7CCC(C6)O7)oc45)cccc3c2c1` [NU5455], the inhibition at 1 µM is -2%.
